Experimental data published in patent US20140303092A1 (CHIMERIX, INC., priority 2011, published 2014).

Test: Study HDP-CDV-201: safety and tolerability (adverse events, laboratory abnormalities, discontinuations)
Type: in vivo, human (adult allogeneic HSCT recipients)
Details: for Subjects with Hemoglobin <6.5 g/dL / Subjects with Hemoglobin <8-6.5 g/dL / Subjects with Hemoglobin <10-8 g/dL / Subjects with Hemoglobin <LLN-10 g/dL / Subjects with Neutrophils <0.5 GI/L / Subjects with Neutrophils <1.0-0.5 GI/L / Subjects with Neutrophils <1.5-1 GI/L / Subjects with Neutrophils <LLN-1.5 GI/L / Subjects with Platelets <25 GI/L / Subjects with Platelets <50-25 GI/L / Subjects with Platelets <75-50 GI/L / Subjects with Platelets <LLN-75 GI/L / Subjects with Serum Creatinine >1 × ULN-[…] ULN / Subjects with Serum Creatinine >3 × ULN-6 × ULN / Subjects with Serum Creatinine >6 × ULN / Subjects with Serum Creatinine >[…] ULN-3 × ULN / Subjects with WBC <1 GI/L / Subjects with WBC <2-1 GI/L / Subjects with WBC <3-2 GI/L / Subjects with WBC <LLN-3 GI/L: any time during therapy
Procedure: Clinical Studies of HDP-CDV were performed and described in detail in the following Examples. For example, HDP-CDV-201 is a placebo-controlled, dose-escalating trial in HSCT CMV (R+) recipients, evaluating the ability of HDP-CDV to prevent or control CMV infection was carried out. Five cohorts were established in which participants or subjects received either placebo or the HDP-CDV orally, in doses ranging from 40 mg weekly (QW) to 200 mg twice weekly (BIW). Subjects who were post-HSCT were enrolled at the time of engraftment and randomized to HDP-CDV or placebo (3 to 1 ratio) and received blinded therapy until approximately 100 day post-transplantation. HDP-CDV doses were 40 mg QW, 100 mg QW, 200 mg QW, 200 mg BIW and 100 mg BIW. Escalation to the next dose was decided by the data monitoring committee after review of the safety data from the previous Cohort. Subjects who developed CMV disease or CMV infection requiring pre-emptive therapy with local standard of care were discontinued from blinded therapy and followed for 4 weeks. Subjects who completed treatment with blinded therapy were followed for 8 weeks post-therapy.
Data from Study HDP-CDV-201 also provided characterization of the safety and tolerability profile of HDP-CDV when administered for the prevention or control of CMV infection in high risk (R^+) post-HSCT adult subjects.
The Safety population (SAFETY) included all randomized subjects who took at least one dose of study treatment. This population was used to summarize safety outcomes based on the treatment actually received, in cases where a subject was treated contrary to the randomization schedule.
The safety and tolerability profile of HDP-CDV, including subject demographics and Baseline characteristics; the AE profile; and laboratory abnormalities of interest were analyzed in the cohorts followed in this investigation.
Subjects completing the treatment period received a full course of study medication; those completing the entire study attended visits through 8 weeks of follow up. Subjects who discontinued treatment may have done so for protocol specified reasons (e.g. development of clinically significant CMV infection requiring preemptive treatment with excluded anti-CMV medications) or for other reasons (e.g., withdrawal, adverse events, loss to follow-up). The disposition of subjects in Study HDP-CDV-201 during the double-blind, placebo-controlled treatment period (through Week 11) is listed by dosing Cohort in TABLE 23.
Adverse events were examined by severity to ensure that all safety signals were identified in this study population. Because of the frequency of events in HSCT recipients, particular attention was given to evaluation of Grade 3 […], 4 (severe), and 5 (fatal) adverse events.
Only those preferred terms for which at least one Grade 3 or higher event was experienced in any treatment group are listed. Cytomegalovirus-related AEs are excluded from this analysis.
HDP-CDV is a lipid conjugate of CDV. Because CDV is known to have adverse effects on renal function and bone marrow, decreased GFR and persistent neutropenia were identified as AEs of special interest. Key renal and hematological (TABLE 30) laboratory parameters were measured and listed below by Study HDP-CDV-201 treatment groups. TABLE 30 includes abnormal levels of serum creatinine, neutrophils, platelets, WBCs, and hemoglobin and includes data at Screening and during the treatment period.
A common metric for unit based dosing of medications is by weight (mg/kg). When the distribution of weights was examined for all subjects participating in the study, the median was 78 kg and the lower 25th percentile weight was approximately 65 kg, which translates to a cut-off of ˜3 mg/kg for a 200 mg total weekly dose. Based upon this approach, a cut-off of 3 mg/kg was used to assess the frequency of diarrhea and associated GI AEs reported for the subjects in Cohorts 3 or 4a (TABLE 40).

[1] = Cohort 4A, 100 mg BIW, through Week 11

## CCCCCCCCCCCCCCCCOCCCOP(=O)(O)COC(CO)Cn1ccc(N)nc1=O (stereo not drawn) [HDP-CDV]
Cohort 4A, 100 mg BIW, N = 50
  TEAE Cytomegalovirus viremia: 6 (12.0%) n (%)
  TEAE Decreased appetite: 9 (18.0%) n (%)
  TEAE Diarrhoea: 26 (52.0%) n (%)
  TEAE Dysgeusia: 4 (8.0%) n (%)
  TEAE Fatigue: 9 (18.0%) n (%)
  TEAE GI Reflux Disease: 0 n (%)
  TEAE Gamma-glutamyltransferase increased: 4 (8.0%) n (%)
  TEAE Generalized oedema: 1 (2.0%) n (%)
  TEAE Hyperbilirubinaemia: 3 (6.0%) n (%)
  TEAE Hyperglycaemia: 9 (18.0%) n (%)
  TEAE Hyperkalemia: 3 (6.0%) n (%)
  TEAE Hypocalcaemia: 2 (4.0%) n (%)
  TEAE Hypokalaemia: 8 (16.0%) n (%)
  TEAE Hyponatraemia: 1 (2.0%) n (%)
  TEAE Increased leukocytosis: 2 (4.0%) n (%)
  TEAE Insomnia: 9 (18.0%) n (%)
  TEAE Liver function test abnormal: 2 (4.0%) n (%)
  TEAE Malnutrition: 1 (2.0%) n (%)
  TEAE Nausea: 17 (34.0%) n (%)
  TEAE Neutropenia: 10 (20.0%) n (%)
  TEAE Oedema peripheral: 8 (16.0%) n (%)
  TEAE Oral Candidiasis: 6 (12.0%) n (%)
  TEAE Pneumonia: 5 (10.0%) n (%)
  TEAE Pyrexia: 10 (20.0%) n (%)
  TEAE Recurrent flatulence: 3 (6.0%) n (%)
  TEAE Renal Failure: 5 (10.0%) n (%)
  TEAE Staphylococcal Bacteremia: 6 (12.0%) n (%)
  TEAE Thrombocytopenia: 7 (14.0%) n (%)
  TEAE Tremor: 1 (2.0%) n (%)
  TEAE Vomiting: 22 (44.0%) n (%)
  Vomiting leading to study drug withdrawal: 1 (2.0%)
Cohort 4A, 100 mg BIW, N = 50, entire study duration
  All AEs, Grade 5 (deaths): 5 (10.0%)
[1]
  Subjects completed treatment: 30 (60.0%) n (%)
  Subjects who permanently discontinued treatment: 20 (40.0%) n (%)
Cohort 4A, >3.0 mg/kg/wk
  Abnormal ALT >3-5x ULN, Any Time Between Week 2 and Week 10, subjects: 4 (40.0%)
  Abnormal ALT >3-5x ULN, Screening, subjects: 0
  Abnormal ALT >5-10x ULN, Any Time Between Week 2 and Week 10, subjects: 1 (10.0%)
  Abnormal ALT >5-10x ULN, Screening, subjects: 0
  Abnormal ALT >10-20x ULN, Any Time Between Week 2 and Week 10, subjects: 0
  Abnormal ALT >10-20x ULN, Screening, subjects: 0
  Abnormal ALT >20x ULN, Any Time Between Week 2 and Week 10, subjects: 1 (10.0%)
  Abnormal ALT >20x ULN, Screening, subjects: 0
Cohort 4A, ≦3.0 mg/kg/wk
  Abnormal ALT >3-5x ULN, Any Time Between Week 2 and Week 10, subjects: 6 (15.0%)
  Abnormal ALT >3-5x ULN, Screening, subjects: 1 (2.8%)
  Abnormal ALT >5-10x ULN, Any Time Between Week 2 and Week 10, subjects: 3 (7.5%)
  Abnormal ALT >5-10x ULN, Screening, subjects: 1 (2.8%)
  Abnormal ALT >10-20x ULN, Any Time Between Week 2 and Week 10, subjects: 1 (2.5%)
  Abnormal ALT >10-20x ULN, Screening, subjects: 1 (2.8%)
  Abnormal ALT >20x ULN, Any Time Between Week 2 and Week 10, subjects: 0
  Abnormal ALT >20x ULN, Screening, subjects: 0
Cohort 4a
  Grade of hepatobiliary AE cholecystitis, subject 4058: 3
  Grade of hepatobiliary AE hyperbilirubinemia, subject 4080: 1
  Grade of hepatobiliary AE hyperbilirubinemia, subject 4090: 2
  Grade of hepatobiliary AE worsening hyperbilirubinemia, subject 4109: 1
  Outcome of hepatobiliary AE cholecystitis, subject 4058: recovered/resolved
  Outcome of hepatobiliary AE hyperbilirubinemia, subject 4080: not recovered/not
  Outcome of hepatobiliary AE hyperbilirubinemia, subject 4090: recovered/resolved
  Outcome of hepatobiliary AE worsening hyperbilirubinemia, subject 4109: not recovered/not
  Relationship of hepatobiliary AE cholecystitis, subject 4058: not related
  Relationship of hepatobiliary AE hyperbilirubinemia, subject 4080: not related
  Relationship of hepatobiliary AE hyperbilirubinemia, subject 4090: possibly related
  Relationship of hepatobiliary AE worsening hyperbilirubinemia, subject 4109: not related
Cohort 4a (100 mg BIW)
  frequency of SAEs involving the gastrointestinal tract: 42%
Weeks 2 to 4 of dosing, doses of 200 mg per week or higher
  typical ALT increases relative to Baseline: 2-4 times Baseline
After introduction of the safety monitoring and management plan
  subjects who discontinued study drug because of GI AEs: ≤ 10%
Any dose
  Grade 3 or 4 increases in creatinine: no Grade 3 or 4 increases in creatinine
Any dose other than 200 mg BIW
  subjects who discontinued study drug due to GI AEs: less than 10%
40 mg QW
  Subjects with Hemoglobin <6.5 g/dL: 0
  Subjects with Hemoglobin <8-6.5 g/dL: 1 (4.3%)
  Subjects with Hemoglobin <10-8 g/dL: 11 (47.8%)
  Subjects with Hemoglobin <LLN-10 g/dL: 10 (43.5%)
  Subjects with Neutrophils <0.5 GI/L: 0
  Subjects with Neutrophils <1.0-0.5 GI/L: 2 (8.7%)
  Subjects with Neutrophils <1.5-1 GI/L: 5 (21.7%)
  Subjects with Neutrophils <LLN-1.5 GI/L: 4 (17.4%)
  Subjects with Platelets <25 GI/L: 4 (17.4%)
  Subjects with Platelets <50-25 GI/L: 9 (39.1%)
  Subjects with Platelets <75-50 GI/L: 4 (17.4%)
  Subjects with Platelets <LLN-75 GI/L: 6 (26.1%)
  Subjects with Serum Creatinine >1 × ULN-[…] ULN: 8 (34.8%)
  Subjects with Serum Creatinine >3 × ULN-6 × ULN: 0
  Subjects with Serum Creatinine >6 × ULN: 0
  Subjects with Serum Creatinine >[…] ULN-3 × ULN: 2 (8.7%)
  Subjects with WBC <1 GI/L: 0
  Subjects with WBC <2-1 GI/L: 5 (21.7%)
  Subjects with WBC <3-2 GI/L: 6 (26.1%)
  Subjects with WBC <LLN-3 GI/L: 5 (21.7%)
100 mg BIW
  Subjects with Hemoglobin <6.5 g/dL: 1 (2.0%)
  Subjects with Hemoglobin <8-6.5 g/dL: 4 (8.0%)
  Subjects with Hemoglobin <10-8 g/dL: 27 (54.0%)
  Subjects with Hemoglobin <LLN-10 g/dL: 17 (34.0%)
  Subjects with Neutrophils <0.5 GI/L: 3 (6.0%)
  Subjects with Neutrophils <1.0-0.5 GI/L: 10 (20.0%)
  Subjects with Neutrophils <1.5-1 GI/L: 10 (20.0%)
  Subjects with Neutrophils <LLN-1.5 GI/L: 5 (10.0%)
  Subjects with Platelets <25 GI/L: 6 (12.0%)
  Subjects with Platelets <50-25 GI/L: 7 (14.0%)
  Subjects with Platelets <75-50 GI/L: 10 (20.0%)
  Subjects with Platelets <LLN-75 GI/L: 21 (42.0%)
  Subjects with Serum Creatinine >1 × ULN-[…] ULN: 16 (32.0%)
  Subjects with Serum Creatinine >3 × ULN-6 × ULN: 0
  Subjects with Serum Creatinine >6 × ULN: 0
  Subjects with Serum Creatinine >[…] ULN-3 × ULN: 10 (20.0%)
  Subjects with WBC <1 GI/L: 4 (8.0%)
  Subjects with WBC <2-1 GI/L: 8 (16.0%)
  Subjects with WBC <3-2 GI/L: 12 (24.0%)
  Subjects with WBC <LLN-3 GI/L: 11 (22.0%)
100 mg QW
  Subjects with Hemoglobin <6.5 g/dL: 1 (3.7%)
  Subjects with Hemoglobin <8-6.5 g/dL: 1 (3.7%)
  Subjects with Hemoglobin <10-8 g/dL: 12 (44.4%)
  Subjects with Hemoglobin <LLN-10 g/dL: 12 (44.4%)
